Data: patent US4639541A, “Substituted phenylacetic acid iodopropargyl esters, biocidal agents containing same and process for manufacturing same” (priority 1984, dated 1987)

Tested on: Colletotrichum coffeanum
Assay: Spore germination test, Colletotrichum coffeanum
Type: cell-based
Details: 1 ppm, 48 hours, 20° C., vs untreated control
Procedure: (§1) 50 μl of a solution or suspension of an active ingredient according to the invention together with 50 μl of a spore suspension produced by washing spores of an agar culture with a nutrient solution that contained per liter 10 g of sugar, 1 g of glycol, 1 g of KH2 PO4 and 0.5 g of MgSO4 were introduced into the concave-ground portion of concave-ground microscope slides.
(§2) The microscope slides were stored at 20° C. for 48 hours in a Petri dish, the base of which was covered with a moistened filter paper.
(§3) Subsequently, the ratio of germinated and non-germinated spores was compared with an untreated control specimen.
(§4) The degree of activity was calculated as a percentage in accordance with the following formula: [formula]

Row | SMILES | degree of activity (fungal toxicity with respect to fungal spores) [%]
1 | O=C(Cc1cc([N+](=O)[O-])c(Cl)cc1Cl)OCC#CI [E] | 100
2 | O=C(Cc1c(Cl)cccc1Cl)OCC#CI [C] | 95
3 | O=C(Cc1ccc(Cl)cc1)OCC#CI [A] | 80
4 | O=C(OCC#CI)C(Cl)c1ccccc1 (stereo not drawn) [D] | 80
5 | O=C(OCC#CI)C(Br)c1ccc(Cl)cc1 (stereo not drawn) [B] | 100

Same assay, conditions: 2 ppm, 48 hours, 20° C., vs untreated control

Row | SMILES | degree of activity (fungal toxicity with respect to fungal spores) [%]
6 | O=C(Cc1cc([N+](=O)[O-])c(Cl)cc1Cl)OCC#CI [E] | 100
7 | O=C(Cc1c(Cl)cccc1Cl)OCC#CI [C] | 95
8 | O=C(Cc1ccc(Cl)cc1)OCC#CI [A] | 90
9 | O=C(OCC#CI)C(Cl)c1ccccc1 (stereo not drawn) [D] | 90
10 | O=C(OCC#CI)C(Br)c1ccc(Cl)cc1 (stereo not drawn) [B] | 100

Same assay, conditions: 4 ppm, 48 hours, 20° C., vs untreated control

Row | SMILES | degree of activity (fungal toxicity with respect to fungal spores) [%]
11 | O=C(Cc1cc([N+](=O)[O-])c(Cl)cc1Cl)OCC#CI [E] | 100
12 | O=C(Cc1c(Cl)cccc1Cl)OCC#CI [C] | 95
13 | O=C(Cc1ccc(Cl)cc1)OCC#CI [A] | 95
14 | O=C(OCC#CI)C(Cl)c1ccccc1 (stereo not drawn) [D] | 95
15 | O=C(OCC#CI)C(Br)c1ccc(Cl)cc1 (stereo not drawn) [B] | 100

Tested on: Botrytis cinerea
Assay: Spore germination test, Botrytis cinerea
Type: cell-based
Details: 1 ppm, 48 hours, 20° C., vs untreated control
Procedure: as §1, §2, §3, §4

Row | SMILES | degree of activity (fungal toxicity with respect to fungal spores) [%]
16 | O=C(Cc1cc([N+](=O)[O-])c(Cl)cc1Cl)OCC#CI [E] | 30
17 | O=C(Cc1c(Cl)cccc1Cl)OCC#CI [C] | 95
18 | O=C(Cc1ccc(Cl)cc1)OCC#CI [A] | 80
19 | O=C(OCC#CI)C(Cl)c1ccccc1 (stereo not drawn) [D] | 80
20 | O=C(OCC#CI)C(Br)c1ccc(Cl)cc1 (stereo not drawn) [B] | 100

Same assay, conditions: 2 ppm, 48 hours, 20° C., vs untreated control

Row | SMILES | degree of activity (fungal toxicity with respect to fungal spores) [%]
21 | O=C(Cc1cc([N+](=O)[O-])c(Cl)cc1Cl)OCC#CI [E] | 30
22 | O=C(Cc1c(Cl)cccc1Cl)OCC#CI [C] | 95
23 | O=C(Cc1ccc(Cl)cc1)OCC#CI [A] | 80
24 | O=C(OCC#CI)C(Cl)c1ccccc1 (stereo not drawn) [D] | 80
25 | O=C(OCC#CI)C(Br)c1ccc(Cl)cc1 (stereo not drawn) [B] | 100

Same assay, conditions: 4 ppm, 48 hours, 20° C., vs untreated control

Row | SMILES | degree of activity (fungal toxicity with respect to fungal spores) [%]
26 | O=C(Cc1cc([N+](=O)[O-])c(Cl)cc1Cl)OCC#CI [E] | 40
27 | O=C(Cc1c(Cl)cccc1Cl)OCC#CI [C] | 100
28 | O=C(Cc1ccc(Cl)cc1)OCC#CI [A] | 90
29 | O=C(OCC#CI)C(Cl)c1ccccc1 (stereo not drawn) [D] | 90
30 | O=C(OCC#CI)C(Br)c1ccc(Cl)cc1 (stereo not drawn) [B] | 100

Tested on: Alternaria tenuis
Assay: Spore germination test, Alternaria tenuis
Type: cell-based
Details: 1 ppm, 48 hours, 20° C., vs untreated control
Procedure: as §1, §2, §3, §4

Row | SMILES | degree of activity (fungal toxicity with respect to fungal spores) [%]
31 | O=C(Cc1cc([N+](=O)[O-])c(Cl)cc1Cl)OCC#CI [E] | 100
32 | O=C(Cc1c(Cl)cccc1Cl)OCC#CI [C] | 95
33 | O=C(Cc1ccc(Cl)cc1)OCC#CI [A] | 80
34 | O=C(OCC#CI)C(Cl)c1ccccc1 (stereo not drawn) [D] | 80
35 | O=C(OCC#CI)C(Br)c1ccc(Cl)cc1 (stereo not drawn) [B] | 100

Same assay, conditions: 2 ppm, 48 hours, 20° C., vs untreated control

Row | SMILES | degree of activity (fungal toxicity with respect to fungal spores) [%]
36 | O=C(Cc1cc([N+](=O)[O-])c(Cl)cc1Cl)OCC#CI [E] | 100
37 | O=C(Cc1c(Cl)cccc1Cl)OCC#CI [C] | 95
38 | O=C(Cc1ccc(Cl)cc1)OCC#CI [A] | 80
39 | O=C(OCC#CI)C(Cl)c1ccccc1 (stereo not drawn) [D] | 90
40 | O=C(OCC#CI)C(Br)c1ccc(Cl)cc1 (stereo not drawn) [B] | 100

Same assay, conditions: 4 ppm, 48 hours, 20° C., vs untreated control

Row | SMILES | degree of activity (fungal toxicity with respect to fungal spores) [%]
41 | O=C(Cc1cc([N+](=O)[O-])c(Cl)cc1Cl)OCC#CI [E] | 100
42 | O=C(Cc1c(Cl)cccc1Cl)OCC#CI [C] | 95
43 | O=C(Cc1ccc(Cl)cc1)OCC#CI [A] | 90
44 | O=C(OCC#CI)C(Cl)c1ccccc1 (stereo not drawn) [D] | 90
45 | O=C(OCC#CI)C(Br)c1ccc(Cl)cc1 (stereo not drawn) [B] | 100

Tested on: Fusarium culmorum
Assay: Spore germination test, Fusarium culmorum
Type: cell-based
Details: 1 ppm, 48 hours, 20° C., vs untreated control
Procedure: as §1, §2, §3, §4

Row | SMILES | degree of activity (fungal toxicity with respect to fungal spores) [%]
46 | O=C(Cc1cc([N+](=O)[O-])c(Cl)cc1Cl)OCC#CI [E] | 100
47 | O=C(Cc1c(Cl)cccc1Cl)OCC#CI [C] | 95
48 | O=C(Cc1ccc(Cl)cc1)OCC#CI [A] | 90
49 | O=C(OCC#CI)C(Cl)c1ccccc1 (stereo not drawn) [D] | 90
50 | O=C(OCC#CI)C(Br)c1ccc(Cl)cc1 (stereo not drawn) [B] | 100

Same assay, conditions: 2 ppm, 48 hours, 20° C., vs untreated control

Row | SMILES | degree of activity (fungal toxicity with respect to fungal spores) [%]
51 | O=C(Cc1cc([N+](=O)[O-])c(Cl)cc1Cl)OCC#CI [E] | 100
52 | O=C(Cc1c(Cl)cccc1Cl)OCC#CI [C] | 95
53 | O=C(Cc1ccc(Cl)cc1)OCC#CI [A] | 95
54 | O=C(OCC#CI)C(Cl)c1ccccc1 (stereo not drawn) [D] | 95
55 | O=C(OCC#CI)C(Br)c1ccc(Cl)cc1 (stereo not drawn) [B] | 100

Same assay, conditions: 4 ppm, 48 hours, 20° C., vs untreated control

Row | SMILES | degree of activity (fungal toxicity with respect to fungal spores) [%]
56 | O=C(Cc1cc([N+](=O)[O-])c(Cl)cc1Cl)OCC#CI [E] | 100
57 | O=C(Cc1c(Cl)cccc1Cl)OCC#CI [C] | 95
58 | O=C(Cc1ccc(Cl)cc1)OCC#CI [A] | 95
59 | O=C(OCC#CI)C(Cl)c1ccccc1 (stereo not drawn) [D] | 95
60 | O=C(OCC#CI)C(Br)c1ccc(Cl)cc1 (stereo not drawn) [B] | 100

Tested on: Penicillium glaucum
Assay: Spore germination test, Penicillium glaucum
Type: cell-based
Details: 1 ppm, 48 hours, 20° C., vs untreated control
Procedure: as §1, §2, §3, §4

Row | SMILES | degree of activity (fungal toxicity with respect to fungal spores) [%]
61 | O=C(Cc1cc([N+](=O)[O-])c(Cl)cc1Cl)OCC#CI [E] | 100
62 | O=C(Cc1c(Cl)cccc1Cl)OCC#CI [C] | 60
63 | O=C(Cc1ccc(Cl)cc1)OCC#CI [A] | 90
64 | O=C(OCC#CI)C(Cl)c1ccccc1 (stereo not drawn) [D] | 90
65 | O=C(OCC#CI)C(Br)c1ccc(Cl)cc1 (stereo not drawn) [B] | 100

Same assay, conditions: 2 ppm, 48 hours, 20° C., vs untreated control

Row | SMILES | degree of activity (fungal toxicity with respect to fungal spores) [%]
66 | O=C(Cc1cc([N+](=O)[O-])c(Cl)cc1Cl)OCC#CI [E] | 100
67 | O=C(Cc1c(Cl)cccc1Cl)OCC#CI [C] | 90
68 | O=C(Cc1ccc(Cl)cc1)OCC#CI [A] | 95
69 | O=C(OCC#CI)C(Cl)c1ccccc1 (stereo not drawn) [D] | 95
70 | O=C(OCC#CI)C(Br)c1ccc(Cl)cc1 (stereo not drawn) [B] | 100

Same assay, conditions: 4 ppm, 48 hours, 20° C., vs untreated control

Row | SMILES | degree of activity (fungal toxicity with respect to fungal spores) [%]
71 | O=C(Cc1cc([N+](=O)[O-])c(Cl)cc1Cl)OCC#CI [E] | 100
72 | O=C(Cc1c(Cl)cccc1Cl)OCC#CI [C] | 90
73 | O=C(Cc1ccc(Cl)cc1)OCC#CI [A] | 95
74 | O=C(OCC#CI)C(Cl)c1ccccc1 (stereo not drawn) [D] | 95
75 | O=C(OCC#CI)C(Br)c1ccc(Cl)cc1 (stereo not drawn) [B] | 100

Tested on: Verticillium dahliae
Assay: Spore germination test, Verticillium dahliae
Type: cell-based
Details: 1 ppm, 48 hours, 20° C., vs untreated control
Procedure: as §1, §2, §3, §4

Row | SMILES | degree of activity (fungal toxicity with respect to fungal spores) [%]
76 | O=C(Cc1cc([N+](=O)[O-])c(Cl)cc1Cl)OCC#CI [E] | 30
77 | O=C(Cc1c(Cl)cccc1Cl)OCC#CI [C] | 100
78 | O=C(Cc1ccc(Cl)cc1)OCC#CI [A] | 80
79 | O=C(OCC#CI)C(Cl)c1ccccc1 (stereo not drawn) [D] | 80
80 | O=C(OCC#CI)C(Br)c1ccc(Cl)cc1 (stereo not drawn) [B] | 100

Same assay, conditions: 2 ppm, 48 hours, 20° C., vs untreated control

Row | SMILES | degree of activity (fungal toxicity with respect to fungal spores) [%]
81 | O=C(Cc1cc([N+](=O)[O-])c(Cl)cc1Cl)OCC#CI [E] | 30
82 | O=C(Cc1c(Cl)cccc1Cl)OCC#CI [C] | 100
83 | O=C(Cc1ccc(Cl)cc1)OCC#CI [A] | 80
84 | O=C(OCC#CI)C(Cl)c1ccccc1 (stereo not drawn) [D] | 80
85 | O=C(OCC#CI)C(Br)c1ccc(Cl)cc1 (stereo not drawn) [B] | 100

Same assay, conditions: 4 ppm, 48 hours, 20° C., vs untreated control

Row | SMILES | degree of activity (fungal toxicity with respect to fungal spores) [%]
86 | O=C(Cc1cc([N+](=O)[O-])c(Cl)cc1Cl)OCC#CI [E] | 40
87 | O=C(Cc1c(Cl)cccc1Cl)OCC#CI [C] | 100
88 | O=C(Cc1ccc(Cl)cc1)OCC#CI [A] | 95
89 | O=C(OCC#CI)C(Cl)c1ccccc1 (stereo not drawn) [D] | 95
90 | O=C(OCC#CI)C(Br)c1ccc(Cl)cc1 (stereo not drawn) [B] | 100

Tested on: Fusarium nivale
Assay: Spore germination test, Fusarium nivale
Type: cell-based
Details: 1 ppm, 48 hours, 20° C., vs untreated control
Procedure: as §1, §2, §3, §4

Row | SMILES | degree of activity (fungal toxicity with respect to fungal spores) [%]
91 | O=C(Cc1cc([N+](=O)[O-])c(Cl)cc1Cl)OCC#CI [E] | 100
92 | O=C(Cc1c(Cl)cccc1Cl)OCC#CI [C] | 100
93 | O=C(Cc1ccc(Cl)cc1)OCC#CI [A] | 60
94 | O=C(OCC#CI)C(Cl)c1ccccc1 (stereo not drawn) [D] | 60
95 | O=C(OCC#CI)C(Br)c1ccc(Cl)cc1 (stereo not drawn) [B] | 100

Same assay, conditions: 2 ppm, 48 hours, 20° C., vs untreated control

Row | SMILES | degree of activity (fungal toxicity with respect to fungal spores) [%]
96 | O=C(Cc1cc([N+](=O)[O-])c(Cl)cc1Cl)OCC#CI [E] | 100
97 | O=C(Cc1c(Cl)cccc1Cl)OCC#CI [C] | 100
98 | O=C(Cc1ccc(Cl)cc1)OCC#CI [A] | 80
99 | O=C(OCC#CI)C(Cl)c1ccccc1 (stereo not drawn) [D] | 80
100 | O=C(OCC#CI)C(Br)c1ccc(Cl)cc1 (stereo not drawn) [B] | 100

Same assay, conditions: 4 ppm, 48 hours, 20° C., vs untreated control

Row | SMILES | degree of activity (fungal toxicity with respect to fungal spores) [%]
101 | O=C(Cc1cc([N+](=O)[O-])c(Cl)cc1Cl)OCC#CI [E] | 100
102 | O=C(Cc1c(Cl)cccc1Cl)OCC#CI [C] | 100
103 | O=C(Cc1ccc(Cl)cc1)OCC#CI [A] | 90
104 | O=C(OCC#CI)C(Cl)c1ccccc1 (stereo not drawn) [D] | 90
105 | O=C(OCC#CI)C(Br)c1ccc(Cl)cc1 (stereo not drawn) [B] | 100
